From ChEMBL document CHEMBL3217491, “Design, synthesis and biological evaluation of imidazopyridine/pyrimidine-chalcone derivatives as potential anticancer agents” (2010)
Activity calls are given as the source filed them. The calls are words filed in the database; no cut-off is given here.

What was measured:
HOP-62 = assay: Growth inhibition of human HOP62 cells after 48 hrs by SRB assay; assay type: functional; details: HOP-62, 48 h
CCRF-CEM = assay: Growth inhibition of human CCRF-CEM cells after 48 hrs by SRB assay; assay type: functional
NCI-H322M = assay: Growth inhibition of human NCI-H322M cells after 48 hrs by SRB assay; assay type: functional
[1] = Growth inhibition of human SF539 cells after 48 hrs by SRB assay; assay type: functional; details: SF-539, 48 h
TK-10 = assay: Growth inhibition of human TK10 cells after 48 hrs by SRB assay; assay type: functional; details: TK-10, 48 h
[2] = Growth inhibition of human BT549 cells after 48 hrs by SRB assay; assay type: functional; details: BT-549, 48 h
MCF7 [3] = assay: Cell cycle arrest in human MCF7 cells assessed as accumulation at G0/G1 phase at 4 uM after 24 hrs by propidium iodide staining-based flow cytometry (reference value: 64.04%); assay type: functional
Malme-3M = assay: Growth inhibition of human MALME-3M cells after 48 hrs by SRB assay; assay type: functional
HL-60(TB) = assay: Growth inhibition of human HL-60(TB) cells after 48 hrs by SRB assay; assay type: functional; details: HL-60, 48 h
HCT-116 = assay: Growth inhibition of human HCT116 cells after 48 hrs by SRB assay; assay type: functional; details: HCT-116, 48 h
NCI-H226 = assay: Growth inhibition of human NCI-H226 cells after 48 hrs by SRB assay; assay type: functional; details: NCI-H226, 48 h
SK-MEL-28 = assay: Growth inhibition of human SK-MEL-28 cells after 48 hrs by SRB assay; assay type: functional; details: SK-MEL-28, 48 h
A549 = assay: Growth inhibition of human A549 cells after 48 hrs by SRB assay; assay type: functional; details: A549, 48 h
IGROV-1 = assay: Growth inhibition of human IGROV1 cells after 48 hrs by SRB assay; assay type: functional; details: IGROV-1, 48 h
[4] = Growth inhibition of human SF295 cells after 48 hrs by SRB assay; assay type: functional; details: SF-295, 48 h
MDA-MB-231 = assay: Growth inhibition of human MDA-MB-231 cells after 48 hrs by SRB assay; assay type: functional; details: MDA-MB-231, 48 h
MCF7 [5] = assay: Cell cycle arrest in human MCF7 cells assessed as accumulation at S phase at 4 uM after 24 hrs by propidium iodide staining-based flow cytometry (reference value: 20.17%); assay type: functional
HT-29 = assay: Growth inhibition of human HT-29 cells after 48 hrs by SRB assay; assay type: functional; details: HT-29, 48 h
[6] = Growth inhibition of human HOP92 cells after 48 hrs by SRB assay; assay type: functional; details: HOP-92, 48 h
K562 = assay: Growth inhibition of human K562 cells after 48 hrs by SRB assay; assay type: functional; details: K562, 48 h
COLO 205 = assay: Growth inhibition of human COLO205 cells after 48 hrs by SRB assay; assay type: functional; details: COLO 205, 48 h
[7] = Growth inhibition of human RXF393 cells after 48 hrs by SRB assay; assay type: functional; details: RXF 393, 48 h
MCF7 [8] = assay: Growth inhibition of human MCF7 cells after 48 hrs by SRB assay; assay type: functional; details: MCF7, 48 h
NCI-H23 = assay: Growth inhibition of human NCI-H23 cells after 48 hrs by SRB assay; assay type: functional; details: NCI-H23, 48 h
MCF7 [9] = assay: Cell cycle arrest in human MCF7 cells assessed as accumulation at G2/M phase at 4 uM after 24 hrs by propidium iodide staining-based flow cytometry (reference value: 15.79%); assay type: functional
[10] = Growth inhibition of human UO31 cells after 48 hrs by SRB assay; assay type: functional; details: UO-31, 48 h
[11] = Growth inhibition of human HCC2998 cells after 48 hrs by SRB assay; assay type: functional; details: HCC 2998, 48 h
SR = assay: Growth inhibition of human SR cells after 48 hrs by SRB assay; assay type: functional
[12] = Growth inhibition of human UACC62 cells after 48 hrs by SRB assay; assay type: functional; details: UACC-62, 48 h
[13] = Growth inhibition of human OVCAR4 cells after 48 hrs by SRB assay; assay type: functional; details: OVCAR-4, 48 h
U-251 = assay: Growth inhibition of human U251 cells after 48 hrs by SRB assay; assay type: functional; details: U-251, 48 h
[14] = Growth inhibition of human HCT15 cells after 48 hrs by SRB assay; assay type: functional; details: HCT-15, 48 h
ACHN = assay: Growth inhibition of human ACHN cells after 48 hrs by SRB assay; assay type: functional
SK-OV-3 = assay: Growth inhibition of human SKOV3 cells after 48 hrs by SRB assay; assay type: functional; details: SK-OV-3, 48 h
[15] = Growth inhibition of human NCI-ADR-RES cells after 48 hrs by SRB assay; assay type: functional
SK-MEL-5 = assay: Growth inhibition of human SK-MEL-5 cells after 48 hrs by SRB assay; assay type: functional; details: SK-MEL-5, 48 h
NCI-H522 = assay: Growth inhibition of human NCI-H522 cells after 48 hrs by SRB assay; assay type: functional; details: NCI-H522, 48 h
KM12 = assay: Growth inhibition of human KM12 cells after 48 hrs by SRB assay; assay type: functional; details: KM12, 48 h
MDA-MB-468 = assay: Growth inhibition of human MDA-MB-468 cells after 48 hrs by SRB assay; assay type: functional; details: MDA-MB-468, 48 h
[16] = Growth inhibition of human UACC257 cells after 48 hrs by SRB assay; assay type: functional; details: UACC-257, 48 h
PC-3 = assay: Growth inhibition of human PC3 cells after 48 hrs by SRB assay; assay type: functional; details: PC-3, 48 h
[17] = Growth inhibition of human OVCAR5 cells after 48 hrs by SRB assay; assay type: functional; details: OVCAR-5, 48 h
MDA-MB-435 = assay: Growth inhibition of human MDA-MB-435 cells after 48 hrs by SRB assay; assay type: functional; details: MDA-MB-435, 48 h
786-0 = assay: Growth inhibition of human 786-0 cells after 48 hrs by SRB assay; assay type: functional; details: 786-0, 48 h
CAKI-1 = assay: Growth inhibition of human Caki1 cells after 48 hrs by SRB assay; assay type: functional; details: CAKI-1, 48 h
SF-268 = assay: Growth inhibition of human SF268 cells after 48 hrs by SRB assay; assay type: functional; details: SF-268, 48 h
RPMI-8226 = assay: Growth inhibition of human RPMI8226 cells after 48 hrs by SRB assay; assay type: functional; details: RPMI-8226, 48 h
SNB-75 = assay: Growth inhibition of human SNB75 cells after 48 hrs by SRB assay; assay type: functional; details: SNB-75, 48 h
[18] = Growth inhibition of human Hs578T cells after 48 hrs by SRB assay; assay type: functional; details: Hs-578T
[19] = Growth inhibition of human OVCAR8 cells after 48 hrs by SRB assay; assay type: functional; details: OVCAR-8, 48 h
NCI-H460 = assay: Growth inhibition of human NCI-H460 cells after 48 hrs by SRB assay; assay type: functional; details: NCI-H460, 48 h
[20] = Growth inhibition of human OVCAR3 cells after 48 hrs by SRB assay; assay type: functional; details: OVCAR-3, 48 h
T47D = assay: Growth inhibition of human T47D cells after 48 hrs by SRB assay; assay type: functional
[21] = Growth inhibition of human MOLT4 cells after 48 hrs by SRB assay; assay type: functional; details: MOLT-4, 48 h
DU-145 = assay: Growth inhibition of human DU145 cells after 48 hrs by SRB assay; assay type: functional; details: DU-145, 48 h
M14 = assay: Growth inhibition of human M14 cells after 48 hrs by SRB assay; assay type: functional; details: M14, 48 h
SK-MEL-2 = assay: Growth inhibition of human SK-MEL-2 cells after 48 hrs by SRB assay; assay type: functional; details: SK-MEL-2, 48 h
A498 = assay: Growth inhibition of human A498 cells after 48 hrs by SRB assay; assay type: functional; details: A498, 48 h
[22] = Growth inhibition of human EKVX cells after 48 hrs by SRB assay; assay type: functional
[23] = Growth inhibition of human LOXIMVI cells after 48 hrs by SRB assay; assay type: functional; details: LOX IMVI
SN12C = assay: Growth inhibition of human SN12C cells after 48 hrs by SRB assay; assay type: functional
SNB-19 = assay: Growth inhibition of human SNB19 cells after 48 hrs by SRB assay; assay type: functional; details: SNB-19, 48 h
SW-620 = assay: Growth inhibition of human SW620 cells after 48 hrs by SRB assay; assay type: functional; details: SW-620, 48 h
MCF7 [24] = assay: Growth inhibition of human MCF7 cells assessed as cell viability at 4 uM after 24 hrs by MTT assay; assay type: functional, cell-based
MCF7 [25] = assay: Induction of apoptosis in human MCF7 cells expressing P21 promoter -145/+8 with luciferase gene assessed as upregulation of p21 protein expression at 4 uM by Western blot analysis relative to control; assay type: functional, cell-based

SMILES: COc1ccc(-c2nc3ncccn3c2/C=C/C(=O)c2cc(OC)c(OC)c(OC)c2)cc1
- GI50 (HOP-62): 2830 nM
- GI50 (CCRF-CEM): 4010 nM
- GI50 (NCI-H322M): 1760 nM
- GI50 [1]: 1360 nM
- GI50 (TK-10): 2880 nM
- GI50 [2]: 1450 nM
- Activity (MCF7 [3]): 90.04%
- GI50 (Malme-3M): 1810 nM
- GI50 (HL-60(TB)): 2520 nM
- GI50 (HCT-116): 1170 nM
- GI50 (NCI-H226): 2280 nM
- GI50 (SK-MEL-28): 1650 nM
- GI50 (A549): 2710 nM
- GI50 (IGROV-1): 2200 nM
- GI50 [4]: 2390 nM
- GI50 (MDA-MB-231): 2730 nM
- Activity (MCF7 [5]): 8.43%
- GI50 (HT-29): 2190 nM
- GI50 [6]: 1430 nM
- GI50 (K562): 2630 nM
- GI50 (COLO 205): 1700 nM
- GI50 [7]: 1110 nM
- GI50 (MCF7 [8]): 1140 nM
- GI50 (NCI-H23): 1350 nM
- Activity (MCF7 [9]): 1.53%
- GI50 [10]: 510 nM
- GI50 [11]: 1580 nM
- GI50 (SR): 1530 nM
- GI50 [12]: 1880 nM
- GI50 [13]: 2910 nM
- GI50 (U-251): 1290 nM
- GI50 [14]: 1380 nM
- GI50 (ACHN): 1570 nM
- GI50 (SK-OV-3): 2500 nM
- GI50 [15]: 1560 nM
- GI50 (SK-MEL-5): 1520 nM
- GI50 (NCI-H522): 1660 nM
- GI50 (KM12): 1610 nM
- GI50 (MDA-MB-468): 1810 nM
- GI50 [16]: 1820 nM
- GI50 (PC-3): 4320 nM
- GI50 [17]: 1530 nM
- GI50 (MDA-MB-435): 2280 nM
- GI50 (786-0): 1840 nM
- GI50 (CAKI-1): 1580 nM
- GI50 (SF-268): 2360 nM
- GI50 (RPMI-8226): 2210 nM
- GI50 (SNB-75): 1890 nM
- GI50 [18]: 1910 nM
- GI50 [19]: 2720 nM
- GI50 (NCI-H460): 1430 nM
- GI50 [20]: 1750 nM
- GI50 (T47D): 2530 nM
- GI50 [21]: 3100 nM
- GI50 (DU-145): 2550 nM
- GI50 (M14): 1530 nM
- GI50 (SK-MEL-2): 1870 nM
- GI50 (A498): 2130 nM
- GI50 [22]: 1610 nM
- GI50 [23]: 1460 nM
- GI50 (SN12C): 2560 nM
- GI50 (SNB-19): 3010 nM
- GI50 (SW-620): 1750 nM
- inhibition (MCF7 [24]): Active

SMILES: COc1cccc2c1C(=O)c1c(O)c3c(c(O)c1C2=O)C[C@@](O)(C(=O)CO)C[C@@H]3O[C@H]1C[C@H](N)[C@H](O)[C@H](C)O1 [DOXORUBICIN]
- Activity (MCF7 [3]): 94.85%
- Activity (MCF7 [5]): 4%
- Activity (MCF7 [9]): 1.15%
- Activity (MCF7 [25]): Active
- inhibition (MCF7 [24]): Active
